“And” between values parts separate entries of the source, which are not always exact repeats. Equal values may be shown once. Values belong to the molecule of their own block, whether it stands above or below them. Numbered stars: 1 amine (or outer) side, 2 acyl side, 3 side chain; on linkers, the order of the positions; unused ones are H or OH. Bridge positions count the residues as written; N and C are the ends. Square brackets hold non-standard residues; d marks the D form. Peptide text beside a SMILES is read from it. I, II: the chains in the order shown. Actinocin(9to1) = Cc1c2oc3c(C)ccc(C(=O)[*:1])c3nc-2c(C(=O)[*:2])c(N)c1=O; NMeV = CN[C@H](C(=O)O)C(C)C; Sar = CNCC(=O)O
Columns and labels:
THP-1 cells [1] = experiment: Induction of TRRE by cytokines and hormones; assay type: cell-based, human; details: 2 hours stimulation, insulin 10^−7 M, IL-1β 10 ng/ml, IL-6 100 ng/ml; for induction of TRRE activity: IL-10 100 ng/ml, epinephrine 10^−6 M
TRRE = experiment: Effect of protease inhibitors and divalent metal ions on partially-purified TRRE activity; assay type: biochemical, human; details: for effect on TRRE activity: partially-purified TRRE
Experimental: C75R cells and COS-1 cells were seeded into 24-well culture plates at a density of 2.5×10^5 cells/ml/well and incubated overnight (for 12 to 16 hours) in 5% CO2 at 37° C. […] (corresponding to A and C mentioned below, respectively). Simultaneously, C75R cells in 24-well plates were also incubated with 300 μl of fresh medium or buffer (corresponding to B mentioned below).
The precipitate was pelleted by centrifugation at 10,000×g for 30 min and resuspended in PBS in approximately twice the volume of the pellet. This solution was then dialyzed at 4° C. against 10 mM Tris-HCl, 60 mM NaCl, pH 7.0. This sample was loaded on an anion-exchange chromatography, Diethylaminoethyl (DEAE)-Sephadex A-25 column (Pharmacia Biotech) (2.5×10 cm) previously equilibrated with 50 mM Tris-HCl, 60 mM NaCl, pH 8.0.
Protease inhibitors were purchased from Sigma Chemical (St. Louis, Mo.), including phenylmethylsulfonyl fluoride (PMSF), 4-(2-aminoethyl)-benzenesulfonyl fluoride (AEBSF), 3,4-dichloroisocoumarin (3,4-DCI), N-α-tosyl-L-lysine chloromethyl ketone (TLCK), N-tosyl-L-phenylalanine chloromethyl ketone (TPCK), ethylenediaminetetraacetic acid (EDTA), ethyleneglycol bis (2-aminoethyl ether) tetraacetic acid (EGTA), 1,10-phenanthroline, and phosphoramidon. These inhibitors can be divided into the following classes: (i) serine protease inhibitors (4 mM PMSF, 0.5 mM AEBSF, and 0.1 mM 3,4-DCI); (ii) serine and cysteine protease inhibitors (0.1 mM TLCK and TPCK); (iii) chelating agents (2 mM EDTA, EGTA, and 1,10-phenanthroline); (iv) a metallo-endoprotease inhibitor (0.5 mM phosphoramidon); and (v) divalent heavy metal ions (2 mM CaCl2, MgCl2, MnCl2, ZnCl2, CoCl2, CuCl2, and FeCl2). […] The percent activity remaining (% control) was expressed relative to the control.
The percent activity remaining (% control) was calculated as above.

THP-1 cells [2] = experiment: Effect of inhibitors co-incubated with PMA on TRRE production; assay type: cell-based, human
Description: Several inhibitors including cycloheximide (Chx) (an inhibitor of protein synthesis), actinomycin D (ActD) (an inhibitor of RNA synthesis), N-ethylmaleimide (NEM) (an inhibitor of membrane internalization and movement), cytochalasin B (CytB) (an inhibitor of microfilament formation), and colchicine (Col) (an inhibitor of microtubule formation) were purchased from Sigma Chemical (St. Louis, Mo.). THP-1 cells at a density of 1×10^6 cells/ml in RPMI-1640/1% FCS with 10^−6 M PMA was co-stimulated along with 10 μg/ml Chx, 1 μg/ml ActD, 1 mM NEM, 0.1 mM CytB, or 0.1 mM Col for 30 min at 37° C. in 5% CO2. Following centrifugation at 400×g for 5 min, the supernatant was discarded and the cells were washed once with serum-free medium. The cells were incubated for an additional 2 hours at the same density (1×10^6 cells/ml) in PMA-free RPMI-1640 with corresponding inhibitors.

THP-1 cells [3] = experiment: as above; assay type: cell-based, human; details: inhibitor 0.01 mM with 10^−6 M PMA
sTNF-R = details: Seitz et al. (1997); cited from earlier work
[4] = molecular target: human soluble p75 TNF-R (human) (UniProt P20333); experiment: soluble p75 TNF-R-Affigel 10 affinity chromatography of TRRE after reaction with C75R cells; TRRE activity assay of fractions
[5] = molecular target: human p75 TNF-R (membrane-bound, on C75R transfected COS-1 cells or on THP-1 cells) (human) (UniProt P20333); experiment: cell-based or functional assay
Sequence of human p75 TNF-R (membrane-bound, on C75R transfected COS-1 cells or on THP-1 cells) (human) (P20333 23-461 C75R limits assumed): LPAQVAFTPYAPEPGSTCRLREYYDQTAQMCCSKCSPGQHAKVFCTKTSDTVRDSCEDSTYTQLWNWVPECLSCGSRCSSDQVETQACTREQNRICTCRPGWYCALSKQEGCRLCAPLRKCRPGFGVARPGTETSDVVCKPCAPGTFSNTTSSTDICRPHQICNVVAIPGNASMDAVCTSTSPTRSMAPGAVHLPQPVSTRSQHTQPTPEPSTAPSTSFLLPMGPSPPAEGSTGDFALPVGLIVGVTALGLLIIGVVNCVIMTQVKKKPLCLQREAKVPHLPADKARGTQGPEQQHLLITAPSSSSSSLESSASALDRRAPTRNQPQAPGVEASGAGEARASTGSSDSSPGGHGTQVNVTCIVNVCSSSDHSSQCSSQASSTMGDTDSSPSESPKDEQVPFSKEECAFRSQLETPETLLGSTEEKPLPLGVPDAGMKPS

[6] = molecular target: human p55 TNF-R (on THP-1 cells) (human) (UniProt P19438); experiment: cell-based or functional assay
Sequence of human p55 TNF-R (on THP-1 cells) (human) (P19438 30-455): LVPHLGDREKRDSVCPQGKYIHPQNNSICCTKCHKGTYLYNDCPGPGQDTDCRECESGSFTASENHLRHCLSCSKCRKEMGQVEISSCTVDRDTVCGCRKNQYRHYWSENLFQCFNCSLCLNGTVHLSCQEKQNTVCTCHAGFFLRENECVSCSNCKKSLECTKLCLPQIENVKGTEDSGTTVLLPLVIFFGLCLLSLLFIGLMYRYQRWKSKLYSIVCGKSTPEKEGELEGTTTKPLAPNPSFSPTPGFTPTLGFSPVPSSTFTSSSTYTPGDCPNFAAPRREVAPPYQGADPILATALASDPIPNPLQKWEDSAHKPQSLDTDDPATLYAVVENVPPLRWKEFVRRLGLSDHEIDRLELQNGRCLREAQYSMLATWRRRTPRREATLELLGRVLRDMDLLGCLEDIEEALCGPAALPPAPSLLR

[7] = molecular target: TNF-R on L929 cells (murine); experiment: cell-based or functional assay
[8] = test system: Lipopolysaccharide-induced shock; details: Yamamoto et al. (1997); cited from earlier work
[9] = 0.5 mM, preincubated 37° C. 30 min (Table 5)
[10] = inhibitor 0.1 mM with 10^−6 M PMA
[11] = 2 mM, preincubated 37° C. 30 min (Table 5)
[12] = 0.1 mM, preincubated 37° C. 30 min (Table 5)
[13] = inhibitor 1 mM with 10^−6 M PMA

Molecule: IL-6: cytokine
induction of TRRE activity (THP-1 cells [1]): no apparent TRRE activity | induction of sTNF-R (THP-1 cells [1]): induced sTNF-R

Molecule: NCCc1ccc(S(=O)(=O)F)cc1 [AEBSF, 4-(2-aminoethyl)-benzenesulfonyl fluoride]
% Control of TRRE activity (TRRE; [9]): 92 ± 8% | effect on TRRE activity (TRRE): no effect

Molecule: C[C@@H]1C[C@@H]([C@H](O)CC2CC(=O)NC(=O)C2)C(=O)[C@@H](C)C1 [Cycloheximide, cycloheximide]
% of TRRE production (THP-1 cells [2]; inhibitor 10 μg/ml with 10^−6 M PMA): 97% | % of TRRE production (THP-1 cells [2]; inhibitor 10 μg/ml with 10^−6 M PMA, listed as Chx): 104%

Molecule: insulin: hormone
induction of TRRE activity (THP-1 cells [1]): no apparent TRRE activity | induction of sTNF-R (THP-1 cells [1]): induced sTNF-R

Molecule: C=C1[C@@H](C)[C@H]2[C@H](Cc3ccccc3)NC(=O)[C@]23OC(=O)/C=C/[C@H](O)CCC[C@@H](C)C/C=C/[C@H]3[C@@H]1O [Cytochalasin B, cytochalasin B]
% of TRRE production (THP-1 cells [2]; [10]): 91% | % of TRRE production (THP-1 cells [3]): 103%

Molecule: O=C(O)CN(CCN(CC(=O)O)CC(=O)O)CC(=O)O [EDTA, ethylenediaminetetraacetic acid]
% Control of TRRE activity (TRRE; [11]): 67% and 67 ± 7%

Molecule: O=c1oc(Cl)c(Cl)c2ccccc12 [3,4-DCI, 3,4-dichloroisocoumarin]
% Control of TRRE activity (TRRE; [12]): 108 ± 4% | effect on TRRE activity (TRRE): no effect

Molecule: [Cl][Mn][Cl] [Mn^2+, MnCl2]
% Control of TRRE activity (TRRE; [11]): 157% and 157 ± 33%

Molecule: CCCCC[C@H](O)/C=C/[C@H]1[C@H](O)CC(=O)[C@@H]1C/C=C\CCCC(=O)O [prostaglandin E2]
sTNF-R shedding (sTNF-R): not affected

Molecule: [Ca+2].[Cl-].[Cl-] [Ca^2+, CaCl2]
% Control of TRRE activity (TRRE; [11]): 151% and 151 ± 23% | % Control of TRRE activity (TRRE; 4 mM (Table 6)): 189±4%

Molecule: COc1cc2c(c(OC)c1OC)-c1ccc(OC)c(=O)cc1[C@@H](NC(C)=O)CC2 [Colchicine, colchicine]
% of TRRE production (THP-1 cells [2]; [10]): 111% | % of TRRE production (THP-1 cells [2]; [13]): 125% | % of TRRE production (THP-1 cells [3]): 95%

Molecule: O=C(O)CN(CCOCCOCCN(CC(=O)O)CC(=O)O)CC(=O)O [EGTA, ethyleneglycol bis (2-aminoethyl ether) tetraacetic acid]
% Control of TRRE activity (TRRE; [11]): 73% and 73 ± 4%

Molecule: [Cl-].[Cl-].[Zn+2] [Zn^2+, ZnCl2]
% Control of TRRE activity (TRRE; 0.1 mM (Table 6)): 122±6% | % Control of TRRE activity (TRRE; [11]): 23% and 23 ± 15%

Molecule: Cc1c2oc3c(C)ccc(C(=O)N[C@@H]4C(=O)N[C@H](C(C)C)C(=O)N5CCC[C@H]5C(=O)N(C)CC(=O)N(C)[C@@H](C(C)C)C(=O)O[C@@H]4C)c3nc-2c(C(=O)N[C@@H]2C(=O)N[C@H](C(C)C)C(=O)N3CCC[C@H]3C(=O)N(C)CC(=O)N(C)[C@@H](C(C)C)C(=O)O[C@@H]2C)c(N)c1=O [Actinomycin D, actinomycin D] (I: T[dV]P[Sar][NMeV] / II: T[dV]P[Sar][NMeV]; ester I:1-I:C, II:1-II:C; linker I:N-II:N via Actinocin(9to1))
% of TRRE production (THP-1 cells [2]; inhibitor 1 μg/ml with 10^−6 M PMA): 104% | % of TRRE production (THP-1 cells [2]; inhibitor 1 μg/ml with 10^−6 M PMA, listed as ActD): 97%

Molecule: N-tosyl-L-phenylalanine chloromethyl ketone [TPCK]
% Control of TRRE activity (TRRE; [12]): 107 ± 7% | effect on TRRE activity (TRRE): no effect

Molecule: O=S(=O)(F)Cc1ccccc1 [PMSF, phenylmethylsulfonyl fluoride]
% Control of TRRE activity (TRRE; 4 mM, preincubated 37° C. 30 min (Table 5)): 116 ± 4% | effect on TRRE activity (TRRE): no effect

Molecule: gold sodium thiomalate
sTNF-R shedding (sTNF-R): not affected

Molecule: [Cl][Cu][Cl] [Cu^2+, CuCl2]
% Control of TRRE activity (TRRE; [11]): 47% and 47 ± 21%

Molecule: IL-1β: cytokine
induction of TRRE activity (THP-1 cells [1]): no apparent TRRE activity | induction of sTNF-R (THP-1 cells [1]): induced sTNF-R

Molecule: CC(C)C[C@H](NP(=O)(O)O[C@@H]1O[C@@H](C)[C@H](O)[C@@H](O)[C@H]1O)C(=O)N[C@@H](Cc1c[nH]c2ccccc12)C(=O)O [Phosphoramidon, phosphoramidon]
% Control of TRRE activity (TRRE; [9]): 84 ± 13%

Molecule: Cc1ccc(S(=O)(=O)N[C@@H](CCCCN)C(=O)CCl)cc1 [TLCK, N-α-tosyl-L-lysine chloromethyl ketone]
% Control of TRRE activity (TRRE; [12]): 108 ± 5% | effect on TRRE activity (TRRE): no effect

Molecule: CNC[C@H](O)c1ccc(O)c(O)c1 [epinephrine]
induction of TRRE activity (THP-1 cells [1]): induced TRRE activity

Molecule: CCN1C(=O)C=CC1=O [N-ethyl-maleimide, N-ethylmaleimide]
% of TRRE production (THP-1 cells [2]; [13]): 17%

Molecule: [Cl-].[Cl-].[Mg+2] [Mg^2+, MgCl2]
% Control of TRRE activity (TRRE; [11]): 127% and 127 ± 9%

Molecule: [Cl][Fe][Cl] [Fe^2+, FeCl2]
% Control of TRRE activity (TRRE; [11]): 98 ± 8%

percent of recovered TRRE activity in the elution of the soluble p75 TNF-R affinity column [4]: 25% | percent of recovered TRRE activity in the flow through of the soluble p75 TNF-R affinity column (not retained) [4]: 53% | percent of recovered TRRE activity in the wash of the soluble p75 TNF-R affinity column (not retained) [4]: 22% | cell surface expression on THP-1 cells after 5,000 U/ml TRRE (flow cytometry, percent control of MFI) [5]: 49 % control | soluble p75 TNF-R released from THP-1 cells (ELISA) after 1,000 U/ml TRRE for 30 min [5]: 1660 pg/mL | cell surface expression on THP-1 cells after 5,000 U/ml TRRE (flow cytometry, percent control of MFI) [6]: 8 % control | soluble p55 TNF-R released from THP-1 cells (ELISA) after 1,000 U/ml TRRE for 30 min [6]: 2380 pg/mL
Molecule: TNF receptor releasing enzyme (TRRE), from PMA-stimulated THP-1 cells
ratio of surviving L929 cells with 4 ng/ml TNF to cells without TNF, pretreated with 100 U/ml TRRE (control without TRRE: 24%) [7]: 30% | ratio of surviving L929 cells with 4 ng/ml TNF to cells without TNF, pretreated with 500 U/ml TRRE (control without TRRE: 24%) [7]: 38% | ratio of surviving L929 cells with 4 ng/ml TNF to cells without TNF, pretreated with 2,500 U/ml TRRE (control without TRRE: 24%) [7]: 74%

Molecule: [Cl-].[Cl-].[Co+2] [Co^2+, CoCl2]
% Control of TRRE activity (TRRE; [11]): 123% and 123 ± 15%

Molecule: c1cnc2c(c1)ccc1cccnc12 [1,10-Phenanthroline, 1,10-phenanthroline]
% Control of TRRE activity (TRRE; 2 mM (Table 6)): 47 ± 9% | % Control of TRRE activity (TRRE; [11]): 41 ± 6% | % Control of TRRE activity (TRRE; 2 mM, preincubated 37° C. 30 min (Table 5), listed as 1,10-phenanthroline): 41%

Molecule: O=C(C(=O)N1CCn2nc(-c3ccc(F)cc3)c(-c3ccncc3)c2N1)c1ccccc1.O=S(=O)(O)O [FR167653]
Lipopolysaccharide-induced shock [8]: ameliorated

B1: IL-10: cytokine (protein, UniProt P22301 19-178, looked up)
Interleukin-10: SPGQGTQSENSCTHFPGNLPNMLRDLRDAFSRVKTFFQMKDQLDNLLLKESLLEDFKGYLGCQALSEMIQFYLEEVMPQAENQDPDIKAHVNSLGENLKTLRLRLRRCHRFLPCENKSKAVEQVKNAFNKLQEKGIYKAMSEFDIFINYIEAYMTMKIRN
induction of TRRE activity (THP-1 cells [1]): induced TRRE activity

Source: patent US6858402B2 (The Regents of the University of California, priority 1996, dated 2005)
